According to patent US10226045B2, “Azoline compounds” (priority 2014, dated 2019):

How the values were obtained:
Type in all cases: in vivo
[1] = tested on: Diamond Back Moth (Plutella xylostella); assay: Diamond back moth, cabbage leaf dip test; conditions: foliar, 300 ppm, 3rd instar larvae on dipped cabbage leaves, 72 hours after treatment, in comparison with untreated controls, read-out: mortality
Protocol: B.1 Diamond Back Moth (Plutella xylostella)
The active compound was dissolved at the desired concentration in a mixture of 1:1 (vol:vol) distilled water:aceteone. Surfactant (Kinetic HV) was added at a rate of 0.01% (vol/vol). The test solution was prepared at the day of use.
Leaves of cabbage were dipped in test solution and air-dried. Treated leaves were placed in petri dishes lined with moist filter paper and inoculated with ten 3rd instar larvae. Mortality was recorded 72 hours after treatment.

[2] = tested on: Rice Green Leafhopper (Nephotettix virescens); assay: Rice green leafhopper, sprayed rice seedlings; conditions: 300 ppm, adults on sprayed rice seedlings, after 72 hours, in comparison with untreated controls, read-out: mortality
Protocol: B.8 Rice Green Leafhopper (Nephotettix virescens)
Rice seedlings were cleaned and washed 24 hours before spraying. The active compounds were formulated in 1:1 acetone:water (vol:vol), and 0.01% vol/vol surfactant (Kinetic HV) was added. Potted rice seedlings were sprayed with 5-6 ml test solution, air dried, covered with Mylar cages cages and inoculated with 10 adults. Treated rice plants were kept at about 28-29° C. and relative humidity of about 50-60%. Percent mortality was recorded after 72 hours.

[3] = tested on: Brown Marmorated Stink Bug (Halyomorpha halys); assay: Brown marmorated stink bug, sprayed peanuts and soybean seeds in cups; conditions: 120 h, 100 ppm, adults on peanuts and soybean seeds, after 5 days, in comparison with untreated controls, read-out: mortality
Protocol: B.13 Brown Marmorated Stink Bug (Halyomorpha halys)
The active compound was dissolved at the desired concentration in a mixture of 1:1 (vol:vol) distilled water: acetone. Surfactant (Kinetic HV) was added at a rate of 0.01% (vol/vol). The test solution was prepared at the day of use.
Row peanuts and soybean seeds were placed into microwavable plastic cups and inoculated with five adult stage H. halys. Using a hand atomizer, approximately 1 ml solution is sprayed into each cup, insects and food present. A water source was provided (cotton wick with water). Each treatment is replicated 4-fold. Assay arenas are kept at about 25° C. Percent mortality was recorded after 5 days.

[4] = tested on: Boll Weevil (Anthonomus grandis); assay: Boll weevil, insect diet microtiter plate test; conditions: 120 h, 2500 ppm, eggs on sprayed insect diet, egg and larval mortality after 5 days, in comparison with untreated controls, read-out: mortality
Protocol: B.5 Boll Weevil (Anthonomus grandis)
For evaluating control of boll weevil (Anthonomus grandis) the test unit consisted of 96-well-microtiter plates containing an insect diet and 5-10 A. grandis eggs.
The compounds were formulated using a solution containing 75% v/v water and 25% v/v DMSO. Different concentrations of formulated compounds were sprayed onto the insect diet at 5 μl, using a custom built micro atomizer, at two replications.
After application, microtiter plates were incubated at about 25±1° C. and about 75±5% relative humidity for 5 days. Egg and larval mortality was then visually assessed.

[5] = tested on: Green Soldier Stink Bug (Nezara viridula); assay: Green soldier stink bug, sprayed soybean pods in Petri dishes; conditions: 120 h, 300 ppm, late 3rd instar on soybean pods, after 5 days, in comparison with untreated controls, read-out: mortality
Protocol: B.11 Green Soldier Stink Bug (Nezara viridula)
The active compound was dissolved at the desired concentration in a mixture of 1:1 (vol:vol) distilled water:acetone. Surfactant (Kinetic HV) was added at a rate of 0.01% (vol/vol). The test solution was prepared at the day of use.
Soybean pods were placed in glass Petri dishes lined with moist filter paper and inoculated with ten late 3rd instar N. viridula. Using a hand atomizer, approximately 2 ml solution is sprayed into each Petri dish. Assay arenas were kept at about 25° C. Percent mortality was recorded after 5 days.

O=C(NC1CS(=O)(=O)C1)c1ccc(C2=NCC(c3cc(Cl)c(F)c(Cl)c3)(C(F)(F)F)C2)c2c1CCC2 (centres unmarked) [Compound 2-3, 7-[3-(3,5-Dichloro-4-fluoro-phenyl)-3-(trifluoromethyl)-2,4-dihydropyrrol-5-yl]-N-(1,1-dioxothietan-3-yl)indane-4-carboxamide]
≥ 75%: mortality at 300 ppm [1] | mortality at 300 ppm [2] | mortality at 100 ppm [3] | mortality at 2500 ppm [4] | mortality at 300 ppm [5]
